Where two headings read alike, the source gives them in different places.
Tests used:
Experiment in all cases: cells
[1] = tested on: AsPC-1; design: Viability of PDAC cell lines, ATPlite luminescence, 11-dose single-agent curve fit; settings: Homo sapiens, ASPC1, 72 h, read-out: EC50 [nM]
Procedure: (§1) Afterward, small amounts were transferred to 384-well intermediate plates (Greiner Bio-One GmbH, Germany). […] For drug combination screening, 1000 to 5000 cells were seeded into 384-well plates (CulturPlate™, Perkin Elmer, MA, USA) using a Multidrop™ Combi Reagent Dispenser (Thermo Scientific, MA, USA) in 50 µl medium per well 24 h prior to drug treatment (seeding densities see Appendix Table S1). […] The final DMSO concentration in each well was 0.2%. […] Eight wells per plate without library drug served as negative controls, and sixteen wells per plate containing 5 µM Staurosporine served as positive controls. […] Next, we analyzed the drug sensitivity of immortalized duct cell line HPDE to detect effects unrelated to pancreatic cancer.

[2] = tested on: BxPC-3; design: Viability of PDAC cell lines, ATPlite luminescence, 11-dose single-agent curve fit; settings: Homo sapiens, BXPC-3, 72 h, read-out: EC50 [nM]
Procedure: as §1

[3] = tested on: Colo-357; design: Viability of PDAC cell lines, ATPlite luminescence, 11-dose single-agent curve fit; settings: Homo sapiens, COLO357, 72 h, read-out: EC50 [nM]
Procedure: as §1

[4] = tested on: Dan-G; design: Viability of PDAC cell lines, ATPlite luminescence, 11-dose single-agent curve fit; settings: 72 h, read-out: EC50 [nM]
Procedure: as §1

[5] = tested on: FAMPAC; design: Viability of PDAC cell lines, ATPlite luminescence, 11-dose single-agent curve fit; settings: 72 h, read-out: EC50 [nM]
Procedure: as §1

[6] = tested on: HPDE; design: Viability of PDAC cell lines, ATPlite luminescence, 11-dose single-agent curve fit; settings: HPDE, 72 h, read-out: EC50 [nM]
Procedure: as §1

[7] = tested on: HuP-T4; design: Viability of PDAC cell lines, ATPlite luminescence, 11-dose single-agent curve fit; settings: Homo sapiens, HuP-T4, 72 h, read-out: EC50 [nM]
Procedure: as §1

[8] = tested on: MiaPaCa-2; design: Viability of PDAC cell lines, ATPlite luminescence, 11-dose single-agent curve fit; settings: Homo sapiens, MIA PaCa-2, 72 h, read-out: EC50 [nM]
Procedure: as §1

[9] = tested on: PANC-1; design: Viability of PDAC cell lines, ATPlite luminescence, 11-dose single-agent curve fit; settings: Homo sapiens, PANC-1, 72 h, read-out: EC50 [nM]
Procedure: as §1

[10] = tested on: PSN-1; design: Viability of PDAC cell lines, ATPlite luminescence, 11-dose single-agent curve fit; settings: Homo sapiens, PSN1, 72 h, read-out: EC50 [nM]
Procedure: as §1

[11] = tested on: PaTu-8988-T; design: Viability of PDAC cell lines, ATPlite luminescence, 11-dose single-agent curve fit; settings: Homo sapiens, PaTu 8988t, 72 h, read-out: EC50 [nM]
Procedure: as §1

[12] = tested on: Suit2-07; design: Viability of PDAC cell lines, ATPlite luminescence, 11-dose single-agent curve fit; settings: 72 h, read-out: EC50 [nM]
Procedure: as §1

[13] = tested on: Capan-1; design: Viability of PDAC cell lines, ATPlite luminescence, 11-dose single-agent curve fit; settings: Homo sapiens, CAPAN-1, 72 h, read-out: EC50 [nM]
Procedure: as §1

[14] = tested on: Dan-G; design: ATPlite luminescence viability of PDAC cell lines, 11-dose single-agent curves, 4-parameter fit; settings: 72 h, read-out: EC50 [nM]
Procedure: as §1

[15] = tested on: BxPC-3; design: ATPlite luminescence viability of PDAC cell lines, 11-dose single-agent curves, 4-parameter fit; settings: Homo sapiens, BXPC-3, 72 h, read-out: EC50 [nM]
Procedure: as §1

[16] = tested on: FAMPAC; design: ATPlite luminescence viability of PDAC cell lines, 11-dose single-agent curves, 4-parameter fit; settings: 72 h, read-out: EC50 [nM]
Procedure: as §1

[17] = tested on: MiaPaCa-2; design: ATPlite luminescence viability of PDAC cell lines, 11-dose single-agent curves, 4-parameter fit; settings: Homo sapiens, MIA PaCa-2, 72 h, read-out: EC50 [nM]
Procedure: as §1

[18] = tested on: PSN-1; design: ATPlite luminescence viability of PDAC cell lines, 11-dose single-agent curves, 4-parameter fit; settings: Homo sapiens, PSN1, 72 h, read-out: EC50 [nM]
Procedure: as §1

Compound	EC50 [1] [nM]	EC50 [2] [nM]	EC50 [3] [nM]	EC50 [4] [nM]	EC50 [5] [nM]	EC50 [6] [nM]	EC50 [7] [nM]	EC50 [8] [nM]	EC50 [9] [nM]	EC50 [10] [nM]	EC50 [11] [nM]	EC50 [12] [nM]	EC50 [13] [nM]	EC50 [14] [nM]	EC50 [15] [nM]	EC50 [16] [nM]	EC50 [17] [nM]	EC50 [18] [nM]
[2H]C([2H])([2H])NC(=O)c1nnc(NC(=O)C2CC2)cc1Nc1cccc(-c2ncn(C)n2)c1OC [BMS986165]	4870	> 10000	9560	3350	> 10000	2330	4610	7220	2070	7570	> 10000	> 10000						
Cc1cc2c(F)c(Oc3ncnn4cc(OC[C@@H](C)O)c(C)c34)ccc2[nH]1 [Brivanib]	156	3.14	8830	> 10000		> 10000	5470	7100	> 10000	> 10000	9580	> 10000	> 10000					
C[C@H](Nc1ncnc2nc[nH]c12)c1cc2cccc(Cl)c2c(=O)n1-c1ccccc1 [Duvelisib]	> 10000	2870	3070		4250	6900	109	2130	1590	883	> 10000	> 10000	4650	5640				
C=CC(=O)N1CCC(CNc2ncnc(N)c2-c2ccc(Oc3ccccc3)cc2)CC1 [Evobrutinib]	1070	2910	31.5	493		2.61		4490	> 10000	571	213	1.96	> 10000					
CNC(=O)c1ccc(Nc2ncc(C(F)(F)F)c(NCc3nccnc3N(C)S(C)(=O)=O)n2)cc1 [Defactinib]	3350		3820	7590		3690	441		142		9750	> 10000	3400		> 10000	> 10000	4660	4590
CCc1cc2c(cc1N1CCC(N3CCOCC3)CC1)C(C)(C)c1[nH]c3cc(C#N)ccc3c1C2=O [Alectinib]		99.3	220	> 10000	9090	2130	680	71.8	80.3	0.05	28	2390						
Cc1ccc(F)c(NC(=O)Nc2ccc(-c3cccc4[nH]nc(N)c34)cc2)c1 [Linifanib]	32.7	792	131	27.9	3290	311	1100	1830	1420	> 10000		864	47					
CN1CC[C@@H](NC(=O)Nc2ccc(C#N)cc2)C[C@@H]1c1nc2ccccc2[nH]1 [Glasdegib]	28.4	164	352	176	1230	110	208	> 10000	2580	846	0.5	523						
